Activity calls are given as the source filed them. For most assays here, no stated cut-off is given here; in the data, actives have a measured EC50 and inactives only a lower limit.
Experiments:
[1] = biological target: T1, RNA-binding protein pos-1 (Caenorhabditis elegans, UniProt G5EF15); experiment: inhibitors of POS-1/mex-3 RNA binding, dose response, biochemical, fluorescence polarization (AID 1964);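 further: purified POS-1 fused to maltose binding protein made in E. coli; potency of compounds blocking POS-1 binding to fluorescent RNA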
T1 sequence (G5EF15 whole entry): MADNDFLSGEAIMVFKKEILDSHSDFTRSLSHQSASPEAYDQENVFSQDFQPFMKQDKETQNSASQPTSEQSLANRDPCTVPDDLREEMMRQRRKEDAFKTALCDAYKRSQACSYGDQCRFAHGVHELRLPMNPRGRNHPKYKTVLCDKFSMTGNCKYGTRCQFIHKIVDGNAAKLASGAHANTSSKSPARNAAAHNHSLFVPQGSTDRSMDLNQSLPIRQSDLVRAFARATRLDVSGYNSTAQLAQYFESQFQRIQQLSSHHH

[2] = Luminescence Cell-Based Dose Response HTS to Identify Inhibitors of 5'UTR Stem-Loop Driven Prion Protein mRNA Translation in H4 Neuroglioblastoma Cells. [Related pubchem assays: 1827 (Project Summary), 1813 (Primary HTS)]; format: functional
[3] = inhibitors of firefly luciferase expression or activity, dose response, H4 neuroglioma cells, luminescence (AID 1990); format: functional, cell-based
[4] = cytotoxicity toward NIH3T3 fibroblasts, dose response, counter-screen, cell-based, ATP luminescence, mouse fibroblasts (AID 2010); format: functional;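 further: cells exposed to compound for about 90 hours before reading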
[5] = biological target: T2, Zinc finger protein mex-5 (Caenorhabditis elegans, UniProt Q9XUB2); experiment: MEX-5/TCR-2 RNA interaction inhibitors, dose response, biochemical, C. elegans, fluorescence polarization (AID 1960)
T2 sequence (Q9XUB2 whole entry): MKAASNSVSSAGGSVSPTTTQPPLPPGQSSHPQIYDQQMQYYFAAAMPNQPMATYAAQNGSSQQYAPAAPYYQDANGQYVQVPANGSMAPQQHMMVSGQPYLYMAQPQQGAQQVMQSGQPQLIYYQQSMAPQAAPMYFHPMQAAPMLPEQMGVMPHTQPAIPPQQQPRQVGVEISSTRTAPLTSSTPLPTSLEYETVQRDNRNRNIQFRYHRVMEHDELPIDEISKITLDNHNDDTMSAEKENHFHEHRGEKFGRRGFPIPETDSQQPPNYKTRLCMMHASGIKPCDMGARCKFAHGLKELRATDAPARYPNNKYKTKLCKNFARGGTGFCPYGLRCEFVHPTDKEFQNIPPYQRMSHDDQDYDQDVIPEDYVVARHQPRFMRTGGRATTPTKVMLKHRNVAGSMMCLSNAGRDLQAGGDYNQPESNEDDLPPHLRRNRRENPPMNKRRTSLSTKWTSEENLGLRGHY

[6] = biological target: T3, Mannose-6-phosphate isomerase (Homo sapiens, UniProt P34949); experiment: human PMI inhibitors, high substrate, primary screen, biochemical, fluorescence intensity, high mannose 6-phosphate (AID 1220)
T3 sequence (P34949 whole entry): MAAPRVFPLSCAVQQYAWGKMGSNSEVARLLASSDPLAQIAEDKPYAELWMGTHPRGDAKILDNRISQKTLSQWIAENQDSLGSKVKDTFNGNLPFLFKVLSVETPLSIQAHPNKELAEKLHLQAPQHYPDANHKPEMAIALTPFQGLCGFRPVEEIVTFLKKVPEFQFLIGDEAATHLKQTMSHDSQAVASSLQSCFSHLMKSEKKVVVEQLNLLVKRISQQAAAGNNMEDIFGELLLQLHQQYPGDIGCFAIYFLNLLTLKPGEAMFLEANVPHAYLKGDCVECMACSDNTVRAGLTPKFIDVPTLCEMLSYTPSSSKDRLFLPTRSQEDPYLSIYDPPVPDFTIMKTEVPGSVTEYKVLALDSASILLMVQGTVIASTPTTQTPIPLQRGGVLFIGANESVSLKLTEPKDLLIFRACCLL

[7] = biological target: T4, Replicative DNA helicase DnaB (Mycobacterium tuberculosis, UniProt P9WMR3); experiment: DnaB intein splicing inhibitors, dose response, biochemical, cell-free fluorescence (AID 449749); format: functional
T4 sequence (P9WMR3 whole entry): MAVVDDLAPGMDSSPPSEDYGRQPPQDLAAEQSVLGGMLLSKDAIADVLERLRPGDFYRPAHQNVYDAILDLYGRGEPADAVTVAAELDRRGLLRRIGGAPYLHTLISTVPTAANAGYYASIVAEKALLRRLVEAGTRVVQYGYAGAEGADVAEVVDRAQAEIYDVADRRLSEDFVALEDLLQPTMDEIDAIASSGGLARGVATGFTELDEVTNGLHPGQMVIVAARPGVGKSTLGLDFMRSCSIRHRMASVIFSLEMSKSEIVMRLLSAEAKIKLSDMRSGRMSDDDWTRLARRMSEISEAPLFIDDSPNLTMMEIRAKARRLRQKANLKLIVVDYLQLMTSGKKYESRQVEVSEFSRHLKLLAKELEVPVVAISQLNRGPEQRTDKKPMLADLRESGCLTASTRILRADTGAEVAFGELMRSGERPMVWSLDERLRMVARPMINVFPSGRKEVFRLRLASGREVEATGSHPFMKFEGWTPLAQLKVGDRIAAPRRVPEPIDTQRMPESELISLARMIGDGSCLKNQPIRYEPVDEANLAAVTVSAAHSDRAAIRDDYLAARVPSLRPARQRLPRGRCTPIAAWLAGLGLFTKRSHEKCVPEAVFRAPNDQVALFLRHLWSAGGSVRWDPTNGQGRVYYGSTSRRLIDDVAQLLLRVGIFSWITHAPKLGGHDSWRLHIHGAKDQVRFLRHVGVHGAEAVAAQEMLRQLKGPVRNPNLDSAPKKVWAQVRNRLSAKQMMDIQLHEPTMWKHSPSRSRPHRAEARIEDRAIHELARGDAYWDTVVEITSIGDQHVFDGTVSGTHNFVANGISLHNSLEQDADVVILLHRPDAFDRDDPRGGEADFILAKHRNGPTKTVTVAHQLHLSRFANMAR

[8] = inhibitors of intracellular T. cruzi replication, confirmation, NIH3T3 host cells, beta-gal luminescence (AID 2044); format: functional, cell-based;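 further: intracellular parasites grown in NIH/3T3 mouse fibroblasts as host cells; luminescent beta-galactosidase reporter signal from transgenic T. cruzi replicating inside host cells; inhibitors lower the luminescence signal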
Protein RecA = biological target: T5, Protein RecA (Mycobacterium tuberculosis, UniProt P9WHJ3); experiment: Fluorescence Cell-Free Homogeneous Dose Retest to Identify Inhibitors of RecA-Intein Splicing Activity. [Related pubchem assays (depositor defined):AID2097, AID2223, AID489010, AID492950]; format: functional
T5 sequence (P9WHJ3 whole entry): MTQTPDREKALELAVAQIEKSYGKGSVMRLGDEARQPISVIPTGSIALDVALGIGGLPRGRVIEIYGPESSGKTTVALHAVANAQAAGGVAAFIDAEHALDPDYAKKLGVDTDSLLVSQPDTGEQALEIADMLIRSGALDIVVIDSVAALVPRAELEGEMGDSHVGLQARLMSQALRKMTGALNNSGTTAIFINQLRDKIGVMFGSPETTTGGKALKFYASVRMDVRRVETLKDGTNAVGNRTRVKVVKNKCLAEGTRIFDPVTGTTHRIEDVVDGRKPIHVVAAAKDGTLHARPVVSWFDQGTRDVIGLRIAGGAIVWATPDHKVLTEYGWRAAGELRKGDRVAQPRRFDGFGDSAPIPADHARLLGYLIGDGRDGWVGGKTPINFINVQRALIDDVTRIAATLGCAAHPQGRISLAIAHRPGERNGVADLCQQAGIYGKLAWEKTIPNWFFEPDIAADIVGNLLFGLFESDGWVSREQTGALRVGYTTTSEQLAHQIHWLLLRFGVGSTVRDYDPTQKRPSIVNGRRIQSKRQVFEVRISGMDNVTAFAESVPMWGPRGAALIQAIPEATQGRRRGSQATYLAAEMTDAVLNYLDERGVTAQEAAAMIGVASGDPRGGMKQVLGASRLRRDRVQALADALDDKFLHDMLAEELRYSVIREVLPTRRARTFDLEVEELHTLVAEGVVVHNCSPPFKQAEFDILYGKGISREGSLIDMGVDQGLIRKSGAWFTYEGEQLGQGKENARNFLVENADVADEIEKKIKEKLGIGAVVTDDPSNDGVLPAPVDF

[9] = biological target: Induced myeloid leukemia cell differentiation protein Mcl-1 (Homo sapiens, UniProt Q07820); format: functional
[10] = inhibitors of SNCA 5'UTR-driven reporter translation, confirmation, H4 neuroglioma cells, luminescence (AID 1988); format: functional, cell-based
Jurkat = experiment: antigen receptor-induced NF-kB inhibitors, dose response, Jurkat, luciferase reporter, luminescence, B- and T-cell (AID 489004); format: functional, cell-based; details: Homo sapiens;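 further: NF-kB luciferase reporter Jurkat cells stimulated with PMA plus ionomycin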
[11] = C. albicans growth with fluconazole, confirmation, fluorescence, retest (AID 2467); format: functional, cell-based
[12] = cytotoxicity toward DRD oncogenic fibroblasts, dose response, cell-based, non-viral oncogenic, luminescence (AID 1934); format: functional; details: Homo sapiens
BJ [13] = experiment: cytotoxicity toward BJ-TERT fibroblasts, dose response, cell-based, RAS-independent, luminescence (AID 1933); format: functional; details: Homo sapiens
[14] = test system: Streptococcus sp. 'group A'; experiment: growth inhibition of control SK(-) GAS strain, dose response, counter-screen for streptokinase expression inhibitor project, luminescence, kanamycin, BacTiterGlo, confirmation (AID 1900); format: functional, organism-based
[15] = cytotoxicity in HEK-293T NF-kB-Luc cells, dose response, cytotoxicity control for B/T-cell NF-kB inhibitor project, cell-based, uHTS hits (AID 489019); format: functional;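 further: IC50 reflects cytotoxicity as loss of cell viability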
BJ [16] = experiment: cytotoxicity toward BJ-TERT-LT-ST fibroblasts, dose response, cell-based, RAS-independent, luminescence (AID 1935); format: functional; details: Homo sapiens;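 further: BJ fibroblasts immortalized with TERT plus LT and ST oncogenes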
[17] = microbe, parasite or virus in culture; format: functional; details: Mycobacterium tuberculosis
[18] = biological target: T6, Long-chain-fatty-acid--AMP ligase FadD28 (Mycobacterium tuberculosis, UniProt P9WQ59); experiment: Fluorescence polarization aasay to screen for inhibitors that compete for the binding of FadD28 to a bisubstrate Measured in Biochemical System Using Plate Reader - 2147-01_Inhibitor_Dose_CherryPick_Activity.; format: functional, Mycobacterium tuberculosis H37Rv
T6 sequence (P9WQ59 whole entry): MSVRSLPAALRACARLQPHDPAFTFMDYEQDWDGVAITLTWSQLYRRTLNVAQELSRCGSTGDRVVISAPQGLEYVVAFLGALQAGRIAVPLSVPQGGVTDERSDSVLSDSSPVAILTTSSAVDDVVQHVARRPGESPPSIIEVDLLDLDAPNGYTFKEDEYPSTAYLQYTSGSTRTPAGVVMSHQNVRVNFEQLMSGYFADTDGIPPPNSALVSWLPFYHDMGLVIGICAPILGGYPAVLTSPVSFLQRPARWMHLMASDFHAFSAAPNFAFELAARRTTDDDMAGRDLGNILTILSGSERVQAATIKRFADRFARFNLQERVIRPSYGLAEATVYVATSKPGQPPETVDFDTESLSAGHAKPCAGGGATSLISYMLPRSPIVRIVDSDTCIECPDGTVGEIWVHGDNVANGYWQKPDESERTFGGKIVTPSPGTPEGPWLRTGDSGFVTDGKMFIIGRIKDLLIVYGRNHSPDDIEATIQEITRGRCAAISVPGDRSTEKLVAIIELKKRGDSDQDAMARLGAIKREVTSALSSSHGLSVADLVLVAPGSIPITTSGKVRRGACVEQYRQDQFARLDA

BJ [19] = experiment: cells; format: functional, cell-based; details: Homo sapiens
Streptococcus = experiment: Group A Streptococcus viability loss, dose response, counter-screen for streptokinase expression inhibitor project, luminescence, BacTiterGlo (AID 1915); format: functional, organism-based;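 further: potency for reduction of bacterial viability or growth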
Streptokinase A = biological target: T7, Streptokinase A (Streptococcus pyogenes serotype M1, UniProt P10520); experiment: S. pyogenes streptokinase expression inhibitors, potency, dose response, plasminogen activation absorbance, OD405 (AID 1914); format: functional, Streptococcus pyogenes M1 GAS;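 further: secreted streptokinase activity via plasminogen activation per viability signal from cell pellet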
T7 sequence (P10520 whole entry): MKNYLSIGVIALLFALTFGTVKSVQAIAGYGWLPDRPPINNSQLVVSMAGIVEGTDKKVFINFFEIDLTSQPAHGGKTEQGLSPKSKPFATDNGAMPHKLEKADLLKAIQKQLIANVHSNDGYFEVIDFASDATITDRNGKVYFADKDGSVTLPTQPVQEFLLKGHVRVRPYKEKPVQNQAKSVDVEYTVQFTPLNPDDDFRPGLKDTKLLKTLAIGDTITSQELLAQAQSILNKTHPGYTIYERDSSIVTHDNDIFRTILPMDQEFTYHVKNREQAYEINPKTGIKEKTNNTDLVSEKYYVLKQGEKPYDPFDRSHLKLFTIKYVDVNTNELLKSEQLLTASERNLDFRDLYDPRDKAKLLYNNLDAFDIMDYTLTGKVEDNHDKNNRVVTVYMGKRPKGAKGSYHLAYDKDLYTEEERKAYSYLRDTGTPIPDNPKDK

[20] = NIH-3T3 fibroblast cytotoxicity, dose response, cytotoxicity control, cell-based, fluorescence, Alamar Blue, secondary assay (AID 2327); format: functional;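 further: NIH-3T3 mouse fibroblasts cultured with fluconazole at 8 µg/mL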
Nonstructural protein 1 = Nonstructural protein 1 (Influenza A virus, UniProt Q194T2); format: functional, Influenza A virus (A/California/07/2009(H1N1))
Sequence of Nonstructural protein 1 (Q194T2 whole entry): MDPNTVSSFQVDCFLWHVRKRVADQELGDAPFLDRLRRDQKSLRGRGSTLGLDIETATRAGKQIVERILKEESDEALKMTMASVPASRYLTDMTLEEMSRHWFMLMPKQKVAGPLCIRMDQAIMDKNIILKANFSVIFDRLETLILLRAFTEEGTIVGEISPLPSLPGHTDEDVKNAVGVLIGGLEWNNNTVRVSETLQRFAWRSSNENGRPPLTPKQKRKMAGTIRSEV

Sequence of Induced myeloid leukemia cell differentiation protein Mcl-1 (Q07820 whole entry): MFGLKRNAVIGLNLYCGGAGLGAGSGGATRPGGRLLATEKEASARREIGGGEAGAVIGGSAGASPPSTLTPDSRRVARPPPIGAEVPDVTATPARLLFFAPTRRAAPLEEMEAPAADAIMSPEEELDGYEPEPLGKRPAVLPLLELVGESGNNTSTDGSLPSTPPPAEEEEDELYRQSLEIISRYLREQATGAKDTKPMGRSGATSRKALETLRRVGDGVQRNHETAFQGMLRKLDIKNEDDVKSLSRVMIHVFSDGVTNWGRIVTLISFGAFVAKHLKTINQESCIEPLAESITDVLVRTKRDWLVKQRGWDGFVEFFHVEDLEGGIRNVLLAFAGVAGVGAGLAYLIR

Compound: CN1C=C/C(=C\c2cc[n+](C)c3ccccc23)c2ccccc21
- EC50 [1]: 65.7 µM (active)
- EC50 [2]: 8.89 µM (active)
- EC50 [3]: 9.17 µM (active)
- EC50 [4]: > 60 µM (not active)
- EC50 [5]: 40 µM (inconclusive)
- IC50 [6]: > 50 µM (not active)
- EC50 (cells): < 0.004 µM (active)
- AC50 [7]: 121 µM (active)
- EC50 [8]: < 0.1 µM (active)
- EC50 (Protein RecA): 1.48 µM (active)
- IC50 [9]: 13 µM (active)
- EC50 [10]: 6.93 µM (active)

Compound: C[n+]1c(-c2ccccc2)c2cc(N)ccc2c2ccc(N)cc21
- IC50 (Jurkat): > 80 µM (inactive)
- EC50 [2]: 20.1 µM (active)
- EC50 [3]: > 120 µM (not active)
- EC50 [11]: 0.121 µM (active)
- EC50 [12]: 7.32 µM (active)
- EC50 (BJ [13]): 3.61 µM (active)
- EC50 [4]: 12.3 µM (active)
- EC50 [14]: 1.29 µM (active)
- EC50 (cells): 0.011 µM (active)
- IC50 [15]: > 80 µM (inactive)
- EC50 (BJ [16]): 10.5 µM (active)
- CC50 [17]: > 40 µM (active)
- EC50 [8]: < 0.1 µM (active)
- AC50 [18]: > 100 µM (inactive)
- EC50 (BJ [19]): 6.25 µM (active)
- EC50 (Streptococcus): 5.67 µM (active)
- EC50 (Streptokinase A): > 150 µM (not active)
- EC50 [10]: 9.48 µM (active)
- EC50 [20]: > 160 µM (inconclusive)
- IC50 (Nonstructural protein 1): 30.5 µM (active)

Reference: ChEMBL document CHEMBL1201862, “PubChem BioAssay data set” (2004)
